Results: patent US6376670B1, “Quinoline-indole antimicrobial agents, uses and compositions related thereto” (Sepracor Inc., priority 1997, dated 2002)
Where two headings read alike, the source gives them in different places.

Key:
Assay in all cases: Determination of MIC values (BHI broth, 96 well microtiter plate)
Assay type in all cases: cell-based
[1] = test system: vancomycin-resistant Enterococcus spp. (VRE); settings: BHI broth; for MIC: Enterococcus, VRE, read-out: MIC VREF
In short: (§1)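 Broth microdilution in BHI broth used final compound concentrations of 25 to 0.39 μg/mL, diluted from DMSO solutions. Inoculum was 10^5–10^6 cells/mL from cultures grown to a 0.5 McFarland standard. Plates were incubated overnight (~16 h) at 37 °C in about 7–10% CO2; MIC was the lowest concentration with no visible growth.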

Streptococcus pneumoniae = settings: Streptococcus pneumoniae, BHI broth, read-out: MIC S. pneu
In short: as §1

[2] = test system: methicillin-resistant Staphylococcus aureus (MRSA); settings: Staphylococcus aureus, MRSA, BHI broth, read-out: MIC MRSA
In short: as §1

[3] = 16 h, 37° C., overnight (about 16 hours)
[4] = 37° C., overnight (about 16 hours)

MIC (Streptococcus pneumoniae; 37° C., about 16 hours) [µg/mL]	MIC ([2]; 16 h, 37° C., about 16 hours) [µg/mL]	MIC ([1]; VREF, overnight 37° C.) [µg/mL]	MIC (Streptococcus pneumoniae; S. pneu, overnight 37° C.) [µg/mL]	MIC ([2]; overnight 37° C.) [µg/mL]	MIC ([1]; 16 h, 37° C., about 16 hours) [µg/mL]	SMILES	also measured
< 7	< 7	–	–	–	–	OCc1cc(-c2c[nH]c3ccc(Br)cc23)nc2ccc(Cl)cc12 [Example 455]	MIC VREF ([1]; 37° C., about 16 hours): <7 µg/mL
–	–	< 7	< 7	< 7	–	Cn1cc(-c2cc(C(=O)NC3CCC(N)CC3)c3cc(Cl)ccc3n2)c2cc(Br)ccc21 (stereo not drawn) [Example 371]	–
–	–	< 7	< 7	< 7	–	Cn1cc(-c2cc(C(=O)NCCN)c3cc(C#CCNCCc4ccccc4)ccc3n2)c2cc(Br)ccc21 [Example 399]	–
> 25	> 25	–	–	–	> 25	Cc1ccc2nc(-c3c(C)[nH]c4ccc(C)cc34)ccc2c1 [Example 439]	–
< 25	< 25	–	–	–	> 25	O=C(c1cc(-c2c[nH]c3cc(F)ccc23)nc2cc(F)ccc12)N1CCNCC1 [Example 498]	–
–	–	< 25	< 25	< 7	–	Cn1cc(-c2cc(C(=O)NCc3ccc(CN)cc3)c3cc(C#CCN4CCCC4)ccc3n2)c2cc(Br)ccc21 [Example 393]	–
> 25	> 25	–	–	–	> 25	COc1ccc2[nH]c(C)c(-c3ccc4cc(C)ccc4n3)c2c1 [Example 434]	–
–	–	–	–	–	–	NCc1ccc(CNC(=O)c2cc(-c3c[nH]c4ccc(Br)cc34)nc3c(Br)cccc23)cc1 [Example 139]	MIC [1, 3]: < 7 µg/mL; MIC (Streptococcus pneumoniae; [4]): < 7 µg/mL; MIC [2, 3]: < 7 µg/mL
–	–	–	–	–	–	NCCCNC(=O)c1cc(-c2c[nH]c3ccc(Br)cc23)nc2ccc(I)cc12 [Example 108]	MIC [1, 3]: < 7 µg/mL; MIC (Streptococcus pneumoniae; [4]): < 7 µg/mL; MIC [2, 3]: < 7 µg/mL
–	–	–	–	–	–	NCc1ccc(CNC(=O)c2cc(-c3c[nH]c4ccc(Br)cc34)nc3cc(Cl)c(I)cc23)cc1 [Example 158]	MIC [1, 3]: < 7 µg/mL; MIC (Streptococcus pneumoniae; [4]): < 7 µg/mL; MIC [2, 3]: < 7 µg/mL
–	–	< 7	< 7	< 7	–	Cn1cc(-c2ccc3cc(Cl)ccc3n2)c2cc([N+](=O)[O-])ccc21 [Example 232]	–
< 7	< 7	–	–	–	> 25	Brc1ccc2[nH]cc(-c3nc4ccc(C#CCN5CCCCC5)cc4c4c3CCO4)c2c1 [Example 517]	–
> 25	> 25	–	–	–	> 25	COc1ccc2nc(-c3c(C)[nH]c4ccccc34)ccc2c1 [Example 449]	–
–	–	–	–	–	–	Cc1ccc2nc(-c3c[nH]c4ccc(Br)cc34)cc(C(=O)NCc3cccc(CN)c3)c2c1 [Example 122]	MIC [1, 3]: < 7 µg/mL; MIC (Streptococcus pneumoniae; [4]): < 7 µg/mL; MIC [2, 3]: < 7 µg/mL
> 25	> 25	–	–	–	> 25	N#Cc1ccc2[nH]cc(-c3cc(Cl)c4ccc(Cl)cc4n3)c2c1 [Example 462]	–
> 25	> 25	–	–	–	> 25	OCc1[nH]c2ccc(Cl)cc2c1-c1cc(Cl)c2ccccc2n1 [Example 470]	–
–	–	> 25	< 25	< 25	–	Oc1ccc2[nH]cc(-c3cc(Cl)c4ccccc4n3)c2c1 [Example 347]	–
–	–	< 7	< 7	< 7	–	NCCNC(=O)c1cc(-c2c[nH]c3ccc(Br)cc23)nc2cc(Cl)cc(Cl)c12 [Example 295]	–
–	–	< 7	< 7	< 7	–	Cn1cc(-c2cc(C(=O)NCC3CCC(CN)CC3)c3ccc(F)cc3n2)c2cc(Br)ccc21 (stereo not drawn) [Example 326]	–
< 25	> 25	–	–	–	> 25	Cc1cccc2c(-c3cc(Cl)c4ccc(Cl)cc4n3)c[nH]c12 [Example 476]	–
< 7	< 7	–	–	–	< 7	NCC(O)CNC(=O)c1cc(-c2c[nH]c3ccc(Br)cc23)nc2cc(F)ccc12 (stereo not drawn) [Example 532]	–
< 7	< 7	–	–	–	> 25	Cc1ccc2nc(-c3c[nH]c4ccc(Br)cc34)ccc2c1 [Example 432]	–
–	–	< 25	< 25	< 25	–	NCc1ccc(CNC(=O)c2cc(-c3c[nH]c4c(Br)cccc34)nc3ccccc23)cc1 [Example 261]	–
–	–	< 25	< 7	< 7	–	NCCNC(=O)c1cc(-c2c[nH]c3ccc(Br)cc23)nc2c(F)cccc12 [Example 319]	–
–	–	< 7	< 7	< 7	–	NCC1CCC(CNC(=O)c2cc(-c3c[nH]c4ccc(Br)cc34)nc3cc(I)ccc23)CC1 (stereo not drawn) [Example 251]	–
–	–	< 7	< 7	< 7	–	NCc1ccc(CNC(=O)c2cc(-c3c[nH]c4ccc(Br)cc34)nc3cc(I)ccc23)cc1 [Example 249]	–
–	–	> 25	> 25	> 25	–	N#Cc1ccc2[nH]cc(-c3cc(Cl)c4ccccc4n3)c2c1 [Example 350]	–

MIC (Streptococcus pneumoniae; 37° C., about 16 hours) [µg/mL]	MIC ([2]; 16 h, 37° C., about 16 hours) [µg/mL]	MIC ([1]; VREF, overnight 37° C.) [µg/mL]	MIC (Streptococcus pneumoniae; S. pneu, overnight 37° C.) [µg/mL]	MIC ([2]; overnight 37° C.) [µg/mL]	MIC ([1]; 16 h, 37° C., about 16 hours) [µg/mL]	SMILES	also measured
< 7	< 7	–	–	–	> 25	Cc1ccc2nc(-c3c(C)[nH]c4ccc(Cl)cc34)ccc2c1 [Example 437]	–
< 25	> 25	–	–	–	> 25	Cc1ccc2nc(-c3c[nH]c4ccc(C)cc34)ccc2c1 [Example 440]	–
–	–	–	–	–	–	Cc1cccc2c(-c3ccc4cc(Cl)ccc4n3)c[nH]c12 [Example 199]	MIC [1, 3]: > 25 µg/mL; MIC (Streptococcus pneumoniae; [4]): > 25 µg/mL; MIC [2, 3]: > 25 µg/mL
< 7	< 7	–	–	–	< 7	NCCNC(=O)c1cc(-c2c[nH]c3ccc(Br)cc23)nc2cc(Cl)c(C#CCN3CC=CCC3)cc12 [Example 529]	–
> 25	< 7	–	–	–	> 25	COc1ccc2nc(-c3c[nH]c4ccc(C)cc34)ccc2c1 [Example 415]	–
< 7	< 7	–	–	–	< 7	Cn1cc(-c2cc(C(=O)NCCN)c3cc(C#CCNCCc4ccc(Cl)cc4)ccc3n2)c2cc(Br)ccc21 [Example 400]	–
–	–	–	–	–	–	NCC1CCC(CNC(=O)c2cc(-c3c[nH]c4ccc(Br)cc34)nc3ccc(I)cc23)CC1 (stereo not drawn) [Example 114]	MIC [1, 3]: < 7 µg/mL; MIC (Streptococcus pneumoniae; [4]): < 7 µg/mL; MIC [2, 3]: < 7 µg/mL
< 7	< 7	–	–	–	< 7	CNCCN(C)C(=O)c1cc(-c2c[nH]c3ccc(Br)cc23)nc2cc(Cl)ccc12 [Example 501]	–
–	–	< 7	< 7	< 7	–	NCc1ccc(CNC(=O)c2cc(-c3c[nH]c4ccc(Br)cc34)nc3ccc(C#CCNCCc4ccc(Cl)cc4)cc23)cc1 [Example 235]	–
–	–	< 7	< 7	< 7	–	NCCNC(=O)c1cc(-c2c[nH]c3ccc(Br)cc23)nc2c(Cl)cc(I)cc12 [Example 314]	–
< 7	< 7	–	–	–	< 7	CN(C)CCN(C)C(=O)c1cc(-c2cn(C)c3ccc(Br)cc23)nc2cc(Cl)ccc12 [Example 507]	–
< 7	< 7	–	–	–	< 7	NCCNC(=O)c1cc(-c2c[nH]c3ccc(Br)cc23)nc2ccc(C#CCNCCc3ccccc3)cc12 [Example 527]	–
–	–	< 7	< 7	< 7	–	Brc1ccc2c(CNCc3ccccc3)cc(-c3c[nH]c4ccc(Br)cc34)nc2c1 [Example 373]	–
–	–	–	–	–	–	O=C(O)c1ccc2[nH]cc(-c3cc(C(=O)O)c4ccccc4n3)c2c1 [Example 76]	MIC [1, 3]: > 25 µg/mL; MIC (Streptococcus pneumoniae; [4]): > 25 µg/mL; MIC [2, 3]: > 25 µg/mL
> 25	> 25	–	–	–	> 25	COc1ccc2nc(-c3c(C)[nH]c4ccc(C)cc34)ccc2c1 [Example 431]	–
< 7	< 7	–	–	–	< 7	OCc1cc(-c2c[nH]c3ccc(Br)cc23)nc2cc(I)ccc12 [Example 453]	–
> 25	> 25	–	–	–	> 25	Cc1ccc2[nH]cc(-c3ccc4cccc(C)c4n3)c2c1 [Example 411]	–
–	–	< 25	< 25	< 25	–	O=C(O)c1cc(-c2c[nH]c3ccc(Br)cc23)nc2cc(F)cc(Cl)c12 [Example 297]	–
–	–	< 7	< 7	< 7	–	NCCNC(=O)c1cc(-c2c[nH]c3ccc(Br)cc23)nc2c(Cl)c(Cl)ccc12 [Example 279]	–
–	–	–	–	–	–	NCc1ccc(CNC(=O)c2cc(-c3cnc4ccccc4c3)nc3ccc(I)cc23)cc1 [Example 151]	MIC [1, 3]: > 25 µg/mL; MIC (Streptococcus pneumoniae; [4]): > 25 µg/mL; MIC [2, 3]: > 25 µg/mL
–	–	> 25	> 25	< 25	–	Cn1cc(-c2ccc3cc(Cl)ccc3n2)c2c(F)cccc21 [Example 211]	–
–	–	> 25	> 25	> 25	–	Clc1ccc2nc(-c3c[nH]c4c(Cl)cccc34)ccc2c1 [Example 354]	–
–	–	< 7	< 7	< 7	–	NCc1cccc(CNC(=O)c2cc(-c3c[nH]c4ccc(Br)cc34)nc3cc(Cl)c(I)cc23)c1 [Example 243]	–
–	–	> 25	> 25	> 25	–	CC(C)(C)OC(=O)n1cc(-c2ccc3cc(I)ccc3n2)c2cc(Br)ccc21 [Example 362]	–
> 25	> 25	–	–	–	> 25	COc1ccc2nc(-c3c[nH]c4ccc(OCc5ccccc5)cc34)ccc2c1 [Example 450]	–
–	–	< 7	> 25	< 7	–	NCc1ccc(CNC(=O)c2cc(-c3c[nH]c4ccc(Br)cc34)nc3ccc(C#CCN4CCSCC4)cc23)cc1 [Example 239]	–
< 25	< 25	–	–	–	> 25	COc1ccc2nc(-c3c[nH]c4ccc(OC)cc34)ccc2c1 [Example 430]	–
